Assay results: US8350027B2, “Dual-acting pyrazole antihypertensive agents” (Theravance, Inc., priority 2009, dated 2013)

Experiments:
NEP enzyme = target: T1, NEP enzyme (Homo sapiens, UniProt P08473); experiment: NEP enzyme inhibition assay (fluorogenic peptide substrate); assay type: biochemical; conditions: values given as lower bounds; * = prodrugs, may not exhibit NEP activity in an in vitro assay; read-out: NEP pIC50 (converted)
T1 construct: purchased R&D Systems, Minneapolis, Minn; 1182-ZN
Outline: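 Recombinant human NEP was run with Mca-BK2 (10 μM) at room temperature in Tris buffer with 1 μM Zn. Compounds (10 μM–20 pM, 12 points) were pre-equilibrated 10 min, then reacted 20 min and acid-stopped. Fluorescence ex 320/em 405 nm, one-site competition fit gives pIC50. Thiol compounds may be pre-treated with 400 μM TCEP.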

human AT1 receptor = target: T2, human AT1 receptor (Homo sapiens, UniProt P30556); experiment: AT1 radioligand binding assay (displacement of [Eu]AngII); conditions: membranes of CHO-K1 cells expressing cloned human AT1 receptor; values given as lower bounds; read-out: AT1 pKi (converted)
T2 construct: expressed in transfected cells; host or cells: CHO-K1
T2 sequence (P30556 1-359): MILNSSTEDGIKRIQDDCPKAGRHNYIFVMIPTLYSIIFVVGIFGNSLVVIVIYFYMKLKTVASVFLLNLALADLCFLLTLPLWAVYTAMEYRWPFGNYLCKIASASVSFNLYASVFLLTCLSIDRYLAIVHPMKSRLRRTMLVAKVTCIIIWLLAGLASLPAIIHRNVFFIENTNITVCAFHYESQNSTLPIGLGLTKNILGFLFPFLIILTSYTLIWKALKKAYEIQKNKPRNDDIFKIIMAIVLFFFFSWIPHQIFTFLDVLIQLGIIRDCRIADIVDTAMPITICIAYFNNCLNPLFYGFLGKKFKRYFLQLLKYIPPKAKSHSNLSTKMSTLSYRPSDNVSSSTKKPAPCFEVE
Outline: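 Membranes from CHO-K1 cells stably expressing cloned human AT1, 0.2 μg protein, in 50 mM Tris/HCl pH 7.5, 5 mM MgCl2, 0.025% BSA. Compounds displaced [Eu]AngII over 120 min in the dark at room temperature or 37° C; filter-bound TRF read. Nonspecific binding with 10 μM angiotensin II; IC50 converted to Ki via Cheng-Prusoff, reported as pKi.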

T1 sequence (P08473 52-750 limits assumed): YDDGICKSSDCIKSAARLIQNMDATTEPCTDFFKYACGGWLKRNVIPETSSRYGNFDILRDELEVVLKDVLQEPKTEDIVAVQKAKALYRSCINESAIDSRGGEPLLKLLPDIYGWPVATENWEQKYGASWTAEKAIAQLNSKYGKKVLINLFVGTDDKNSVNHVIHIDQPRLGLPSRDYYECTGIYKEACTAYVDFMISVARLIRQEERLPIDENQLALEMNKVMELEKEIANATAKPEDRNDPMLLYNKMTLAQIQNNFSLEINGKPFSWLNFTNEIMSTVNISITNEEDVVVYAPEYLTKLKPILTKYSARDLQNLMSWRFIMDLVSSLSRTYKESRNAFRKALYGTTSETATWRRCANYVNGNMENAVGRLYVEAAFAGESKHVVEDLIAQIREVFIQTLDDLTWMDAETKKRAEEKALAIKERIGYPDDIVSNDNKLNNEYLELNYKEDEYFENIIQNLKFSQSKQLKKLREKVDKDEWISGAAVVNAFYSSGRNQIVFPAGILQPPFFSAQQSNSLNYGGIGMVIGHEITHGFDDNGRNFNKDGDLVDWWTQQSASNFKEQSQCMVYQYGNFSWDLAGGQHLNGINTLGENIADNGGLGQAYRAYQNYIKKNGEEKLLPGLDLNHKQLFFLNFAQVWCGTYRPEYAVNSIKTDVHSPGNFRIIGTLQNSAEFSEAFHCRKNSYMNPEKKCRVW

| Compound | IC50 (NEP enzyme) | Ki (human AT1 receptor) |
| --- | --- | --- |
| CCCc1cc(C(=O)N[C@@H](CC(=O)O)Cc2ccccc2)nn1Cc1ccc(-c2ccccc2-c2nnn[nH]2)cc1F [Example 3-30, (R)-3-({1-[3-Fluoro-2′-(1H-tetrazol-5-yl)biphenyl-4-ylmethyl]-5-propyl-1H-pyrazole-3-carbonyl}amino)-4-phenylbutyric acid] | ≤ 10 µM | ≤ 0.01 µM |
| CCCc1cc(C(=O)N[C@@H](CC(=O)NO)Cc2ccccc2Cl)nn1Cc1ccc(-c2ccccc2-c2nnn[nH]2)cc1 [Example 3-15, 5-Propyl-1-[2′-(1H-tetrazol-5-yl)-biphenyl-4-ylmethyl]-1H-pyrazole-3-carboxylic acid [(R)-2-(2-chlorophenyl)-1-hydroxycarbamoylmethylethyl]amide] | ≤ 0.1 µM | ≤ 0.01 µM |
| CCCc1cc(C(=O)N[C@H](Cc2ccccc2Cl)[C@@H](O)C(=O)O)nn1Cc1ccc(-c2ccccc2-c2nnn[nH]2)cc1 [Example 3-22, (2R,3R)-3-(1-((2′-(1H-tetrazol-5-yl)biphenyl-4-yl)methyl)-5-propyl-1H-pyrazole-3-carboxamido)-4-(2-chlorophenyl)-2-hydroxybutanoic acid] | ≤ 0.1 µM | ≤ 0.1 µM |
| CCCc1cc(C(=O)N[C@@H](CC(=O)O)Cc2ccccc2C(F)(F)F)nn1Cc1ccc(-c2ccccc2-c2nnn[nH]2)c(F)c1 [Example 3-19, (R)-3-({1-[2-Fluoro-2′-(1H-tetrazol-5-yl)-biphenyl-4-ylmethyl]-5-propyl-1H-pyrazole-3-carbonyl}amino)-4-(2-trifluoromethylphenyl)butyric acid] | ≤ 1 µM | ≤ 0.1 µM |
| CCOc1cc(C(=O)N[C@@H](CS)CC(C)C)nn1Cc1ccc(-c2ccccc2-c2nnn[nH]2)cc1 [Example 3-5, 5-Ethoxy-1-[2′-(1H-tetrazol-5-yl)biphenyl-4-ylmethyl]-1H-pyrazole-3-carboxylic acid ((R)-1-mercaptomethyl-3-methylbutyl)amide] | ≤ 0.1 µM | ≤ 0.1 µM |
| CCCc1cc(C(=O)N[C@@H](CS)CC(C)C)nn1Cc1ccc(-c2ccccc2-c2nnn[nH]2)cc1 [Example 3-7, 5-Propyl-1-[2′-(1H-tetrazol-5-yl)biphenyl-4-ylmethyl]-1H-pyrazole-3-carboxylic acid ((R)-1-mercaptomethyl-3-methylbutyl)amide] | ≤ 0.1 µM | ≤ 0.01 µM |

Other lines, results leading:

| IC50 (NEP enzyme) | Ki (human AT1 receptor) | Compound |
| --- | --- | --- |
| ≤ 0.1 µM | ≤ 0.1 µM | CCCc1cc(C(=O)N[C@H](Cc2ccccc2Cl)[C@@H](O)C(=O)O)nn1Cc1ccc(-c2ccccc2-n2nn[nH]c2=O)cc1 [Example 16-6, (2R,3R)-4-(2-Chlorophenyl)-2-hydroxy-3-({1-[2′-(5-oxo-4,5-dihydrotetrazol-1-yl)biphenyl-4-ylmethyl]-5-propyl-1H-pyrazole-3-carbonyl}amino)butyric acid] |
| ≤ 1 µM | ≤ 0.01 µM | CCCc1cc(C(=O)N[C@@H](CC(=O)O)Cc2ccco2)nn1Cc1ccc(-c2ccccc2-c2nnn[nH]2)nc1 [Example 14-11, (R)-4-Furan-2-yl-3-[(5-propyl-1-{6-[2-(1H-tetrazol-5-yl)phenyl]pyridin-3-ylmethyl}-1H-pyrazole-3-carbonyl)amino]butyric acid] |
| ≤ 0.1 µM | ≤ 0.01 µM | CCCc1cc(C(=O)N[C@@H](CC(=O)O)Cc2ccc(F)cc2)nn1Cc1ccc(-c2ccccc2-c2nnn[nH]2)nc1 [Example 14-13, (R)-4-(4-Fluorophenyl)-3-[(5-propyl-1-{6-[2-(1H-tetrazol-5-yl)phenyl]pyridin-3-ylmethyl}-1H-pyrazole-3-carbonyl)amino]butyric acid] |
| ≤ 0.1 µM | ≤ 0.01 µM | CCCc1cc(C(=O)N[C@H](Cc2ccccc2)[C@@H](O)C(=O)O)nn1Cc1ccc(-c2ccccc2S(=O)(=O)NC(=O)CCOC)cc1 [Example 7-17, (2R,3R)-2-Hydroxy-3-({1-[2′-(3-methoxy-propionylsulfamoyl)biphenyl-4-ylmethyl]-5-propyl-1H-pyrazole-3-carbonyl}amino)-4-phenylbutyric acid] |
